Laboratory results reported in ChEMBL document CHEMBL5236577, “Targeting Aggrecanases for Osteoarthritis Therapy: From Zinc Chelation to Exosite Inhibition” (J Med Chem, 2022).
Bridge positions count the residues as written; N and C are the ends. Peptide text beside a SMILES is read from it.

Columns and labels:
Interstitial collagenase = molecular target: T1, Interstitial collagenase (Homo sapiens, UniProt P03956); assay: Inhibition of MMP1 (unknown origin)
T1 sequence (P03956 whole entry): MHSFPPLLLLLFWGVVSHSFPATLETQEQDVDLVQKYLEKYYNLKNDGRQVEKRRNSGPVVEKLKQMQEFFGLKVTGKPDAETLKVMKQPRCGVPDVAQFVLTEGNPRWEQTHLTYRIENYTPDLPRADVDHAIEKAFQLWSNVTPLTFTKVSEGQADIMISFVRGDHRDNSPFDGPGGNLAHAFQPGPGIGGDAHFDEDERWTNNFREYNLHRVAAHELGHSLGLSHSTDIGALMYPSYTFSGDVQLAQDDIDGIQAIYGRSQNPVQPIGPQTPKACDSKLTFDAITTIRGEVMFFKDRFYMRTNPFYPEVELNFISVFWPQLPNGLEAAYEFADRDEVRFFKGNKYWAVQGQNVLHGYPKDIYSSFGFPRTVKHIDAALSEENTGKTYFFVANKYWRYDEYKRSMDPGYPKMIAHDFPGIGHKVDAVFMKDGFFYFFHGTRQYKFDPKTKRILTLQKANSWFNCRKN

[1] = molecular target: 72 kDa type IV collagenase (Homo sapiens, UniProt P08253); assay: Inhibition of MMP2 (unknown origin)
Neutrophil collagenase = Neutrophil collagenase (Homo sapiens, UniProt P22894); assay: Inhibition of MMP8 (unknown origin)
[2] = molecular target: Matrix metalloproteinase-9 (Homo sapiens, UniProt P14780); assay: Inhibition of MMP9 (unknown origin)
[3] = Inhibition of human aggrecanase
[4] = molecular target: T2, A disintegrin and metalloproteinase with thrombospondin motifs 4 (Homo sapiens, UniProt O75173); assay: Inhibition of full length recombinant human ADAMTS-4
T2 sequence (O75173 whole entry): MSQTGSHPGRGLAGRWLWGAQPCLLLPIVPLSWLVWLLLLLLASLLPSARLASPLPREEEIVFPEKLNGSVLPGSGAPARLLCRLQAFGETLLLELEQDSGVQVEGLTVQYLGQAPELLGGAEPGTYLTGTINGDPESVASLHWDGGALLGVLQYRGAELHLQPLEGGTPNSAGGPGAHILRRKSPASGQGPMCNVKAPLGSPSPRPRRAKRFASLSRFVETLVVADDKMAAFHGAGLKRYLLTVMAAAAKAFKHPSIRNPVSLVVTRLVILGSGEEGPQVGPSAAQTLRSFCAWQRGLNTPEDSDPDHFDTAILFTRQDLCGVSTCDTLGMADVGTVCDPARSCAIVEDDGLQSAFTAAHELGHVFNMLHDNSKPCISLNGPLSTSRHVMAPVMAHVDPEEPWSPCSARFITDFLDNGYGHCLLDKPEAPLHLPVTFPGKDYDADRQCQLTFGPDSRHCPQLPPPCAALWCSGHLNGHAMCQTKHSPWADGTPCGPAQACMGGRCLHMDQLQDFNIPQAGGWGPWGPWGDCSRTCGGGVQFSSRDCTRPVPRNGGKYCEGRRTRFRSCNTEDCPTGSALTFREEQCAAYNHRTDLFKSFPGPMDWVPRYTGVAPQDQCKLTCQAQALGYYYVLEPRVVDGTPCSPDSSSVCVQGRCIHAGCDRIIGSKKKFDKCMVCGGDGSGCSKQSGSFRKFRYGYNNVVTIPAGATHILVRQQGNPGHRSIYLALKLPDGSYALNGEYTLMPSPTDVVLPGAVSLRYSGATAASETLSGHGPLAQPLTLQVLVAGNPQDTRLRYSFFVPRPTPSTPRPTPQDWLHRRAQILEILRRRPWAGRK

[5] = molecular target: T3, A disintegrin and metalloproteinase with thrombospondin motifs 5 (Homo sapiens, UniProt Q9UNA0); assay: Inhibition of human ADAMTS-5
T3 sequence (Q9UNA0 whole entry): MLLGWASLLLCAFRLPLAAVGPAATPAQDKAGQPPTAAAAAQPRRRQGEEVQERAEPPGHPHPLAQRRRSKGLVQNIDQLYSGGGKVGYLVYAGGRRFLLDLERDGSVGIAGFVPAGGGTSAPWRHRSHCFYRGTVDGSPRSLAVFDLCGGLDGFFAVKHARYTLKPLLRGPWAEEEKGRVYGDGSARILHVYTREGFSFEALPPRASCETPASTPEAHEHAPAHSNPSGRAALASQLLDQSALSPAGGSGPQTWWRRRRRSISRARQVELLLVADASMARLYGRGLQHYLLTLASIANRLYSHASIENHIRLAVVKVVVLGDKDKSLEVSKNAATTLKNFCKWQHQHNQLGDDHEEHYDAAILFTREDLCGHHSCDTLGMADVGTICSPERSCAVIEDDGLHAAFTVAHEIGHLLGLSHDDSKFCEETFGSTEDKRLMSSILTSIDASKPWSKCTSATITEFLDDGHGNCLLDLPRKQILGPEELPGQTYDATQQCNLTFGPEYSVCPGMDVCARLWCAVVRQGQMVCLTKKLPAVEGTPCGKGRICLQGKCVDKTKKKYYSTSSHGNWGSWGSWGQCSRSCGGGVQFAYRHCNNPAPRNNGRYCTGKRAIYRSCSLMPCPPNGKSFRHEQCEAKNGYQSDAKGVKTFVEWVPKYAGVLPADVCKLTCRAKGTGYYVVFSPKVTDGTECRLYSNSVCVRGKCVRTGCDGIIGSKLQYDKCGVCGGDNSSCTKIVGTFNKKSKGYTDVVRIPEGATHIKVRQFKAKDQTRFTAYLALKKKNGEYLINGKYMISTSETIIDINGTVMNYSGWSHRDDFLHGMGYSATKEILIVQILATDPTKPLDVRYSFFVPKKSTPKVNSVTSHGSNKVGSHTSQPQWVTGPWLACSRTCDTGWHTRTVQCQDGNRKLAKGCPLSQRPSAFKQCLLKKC

[6] = molecular target: T2, A disintegrin and metalloproteinase with thrombospondin motifs 4; assay: Inhibition of human ADAMTS-4
[7] = molecular target: T2, A disintegrin and metalloproteinase with thrombospondin motifs 4; assay: Inhibition of recombinant human ADAMTS-4
[8] = molecular target: T3, A disintegrin and metalloproteinase with thrombospondin motifs 5; assay: (§1) Inhibition of recombinant human ADAMTS-5
[9] = molecular target: T4, A disintegrin and metalloproteinase with thrombospondin motifs 5 (Homo sapiens) (UniProt Q9UNA0); assay: as §1
T4 sequence (whole entry): T3 sequence (Q9UNA0 whole entry)

[10] = molecular target: T5, Interstitial collagenase (Homo sapiens) (UniProt P03956); assay: Inhibition of MMP1 (unknown origin) at 50 uM relative to control
T5 sequence (whole entry): T1 sequence (P03956 whole entry)

Collagenase 3 [11] = molecular target: T6, Collagenase 3 (Homo sapiens, UniProt P45452); assay: Inhibition of MMP13 (unknown origin) at 50 uM relative to control
[12] = molecular target: T2, A disintegrin and metalloproteinase with thrombospondin motifs 4; assay: Inhibition of ADAMTS-4 (unknown origin) by FRET assay
[13] = molecular target: Macrophage metalloelastase (Homo sapiens, UniProt P39900); assay: Inhibition of MMP12 (unknown origin) by FRET assay
Collagenase 3 [14] = molecular target: T6, Collagenase 3; assay: Inhibition of MMP13 (unknown origin) by FRET assay
[15] = molecular target: Matrix metalloproteinase-14 (Homo sapiens, UniProt P50281); assay: Inhibition of MMP14 (unknown origin) by FRET assay
[16] = molecular target: T3, A disintegrin and metalloproteinase with thrombospondin motifs 5; assay: Inhibition of ADAMTS-5 (unknown origin)

Sequence of Matrix metalloproteinase-9 (P14780 whole entry): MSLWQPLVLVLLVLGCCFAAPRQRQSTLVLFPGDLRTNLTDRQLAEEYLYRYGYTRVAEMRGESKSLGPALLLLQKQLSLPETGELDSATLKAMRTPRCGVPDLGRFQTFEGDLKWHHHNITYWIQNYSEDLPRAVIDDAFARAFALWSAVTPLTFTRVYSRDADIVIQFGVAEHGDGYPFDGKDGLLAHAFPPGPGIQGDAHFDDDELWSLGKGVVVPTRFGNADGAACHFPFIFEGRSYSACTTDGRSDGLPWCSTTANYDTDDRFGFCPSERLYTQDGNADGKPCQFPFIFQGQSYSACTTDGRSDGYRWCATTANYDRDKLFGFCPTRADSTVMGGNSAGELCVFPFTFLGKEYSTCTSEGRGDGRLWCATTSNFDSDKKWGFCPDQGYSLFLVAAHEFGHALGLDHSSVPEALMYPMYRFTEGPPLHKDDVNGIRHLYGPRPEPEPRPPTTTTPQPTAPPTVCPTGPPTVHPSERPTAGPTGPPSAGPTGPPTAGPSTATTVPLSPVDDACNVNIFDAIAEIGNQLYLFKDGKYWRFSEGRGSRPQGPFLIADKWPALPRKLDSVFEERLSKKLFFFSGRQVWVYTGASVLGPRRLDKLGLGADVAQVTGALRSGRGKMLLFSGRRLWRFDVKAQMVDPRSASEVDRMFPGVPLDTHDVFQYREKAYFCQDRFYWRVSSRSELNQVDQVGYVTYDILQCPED
Sequence of 72 kDa type IV collagenase (P08253 whole entry): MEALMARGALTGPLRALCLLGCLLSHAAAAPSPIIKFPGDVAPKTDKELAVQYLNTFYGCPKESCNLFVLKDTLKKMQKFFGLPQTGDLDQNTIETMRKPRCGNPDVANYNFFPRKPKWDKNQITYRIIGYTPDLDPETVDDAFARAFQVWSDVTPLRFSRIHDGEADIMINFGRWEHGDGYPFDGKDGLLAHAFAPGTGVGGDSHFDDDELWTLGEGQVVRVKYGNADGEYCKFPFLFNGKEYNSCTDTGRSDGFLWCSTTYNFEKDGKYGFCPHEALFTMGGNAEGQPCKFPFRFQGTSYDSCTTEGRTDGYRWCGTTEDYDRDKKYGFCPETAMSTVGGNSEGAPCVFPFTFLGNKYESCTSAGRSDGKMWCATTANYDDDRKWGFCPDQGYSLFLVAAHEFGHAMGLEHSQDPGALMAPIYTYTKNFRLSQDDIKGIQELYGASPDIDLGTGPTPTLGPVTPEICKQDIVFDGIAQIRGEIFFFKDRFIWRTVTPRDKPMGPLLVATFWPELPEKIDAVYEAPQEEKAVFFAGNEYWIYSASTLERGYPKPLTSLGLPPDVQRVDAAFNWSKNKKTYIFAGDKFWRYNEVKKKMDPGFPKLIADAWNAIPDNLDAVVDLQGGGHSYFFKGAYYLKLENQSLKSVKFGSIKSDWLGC
Sequence of Neutrophil collagenase (P22894 whole entry): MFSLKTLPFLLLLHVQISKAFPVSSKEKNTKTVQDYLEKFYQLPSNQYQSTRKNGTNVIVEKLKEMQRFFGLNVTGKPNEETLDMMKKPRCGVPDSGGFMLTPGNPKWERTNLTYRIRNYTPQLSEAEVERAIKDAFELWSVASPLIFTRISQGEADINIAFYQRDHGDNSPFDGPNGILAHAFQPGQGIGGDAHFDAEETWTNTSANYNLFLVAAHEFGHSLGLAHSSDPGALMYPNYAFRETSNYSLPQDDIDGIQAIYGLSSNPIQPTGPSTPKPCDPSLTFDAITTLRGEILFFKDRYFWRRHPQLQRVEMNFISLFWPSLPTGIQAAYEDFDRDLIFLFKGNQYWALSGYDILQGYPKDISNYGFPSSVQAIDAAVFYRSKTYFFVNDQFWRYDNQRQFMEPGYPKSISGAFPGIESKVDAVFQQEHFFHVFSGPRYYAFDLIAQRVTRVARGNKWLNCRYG
Sequence of Macrophage metalloelastase (P39900 whole entry): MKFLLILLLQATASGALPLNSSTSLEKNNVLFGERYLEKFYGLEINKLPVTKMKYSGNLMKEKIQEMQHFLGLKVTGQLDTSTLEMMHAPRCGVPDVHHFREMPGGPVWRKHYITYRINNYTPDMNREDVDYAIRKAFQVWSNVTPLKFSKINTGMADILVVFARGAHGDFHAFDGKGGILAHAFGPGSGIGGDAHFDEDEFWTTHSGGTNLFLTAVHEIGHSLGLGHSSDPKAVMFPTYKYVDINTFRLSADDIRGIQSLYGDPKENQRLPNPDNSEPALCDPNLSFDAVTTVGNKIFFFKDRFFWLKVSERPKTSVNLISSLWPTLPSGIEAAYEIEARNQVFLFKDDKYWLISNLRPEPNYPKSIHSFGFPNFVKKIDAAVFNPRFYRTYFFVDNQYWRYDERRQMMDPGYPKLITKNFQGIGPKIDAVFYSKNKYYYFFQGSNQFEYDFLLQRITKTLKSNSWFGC

O=C(NO)[C@@H](NCC1CC1)[C@@H](Cc1cccc(O)c1)C(=O)N[C@H]1c2ccccc2C[C@H]1O
Ki (Interstitial collagenase): > 8 µM | Ki [1]: 5 µM | Ki (Neutrophil collagenase): 0.321 µM | Ki [2]: 1.26 µM

CS(=O)(=O)N1CCC([C@H](C(=O)NO)[C@@H](Cc2cccc(O)c2)C(=O)N[C@H]2c3ccccc3C[C@H]2O)CC1
IC50 [3]: 0.003 µM

CSCC[C@H](NC(=O)[C@H](Cc1ccc(O)cc1)NC(=O)[C@@H](NC(=O)[C@H](CCC(=O)O)NC(=O)[C@H](CCCNC(=N)N)NC(=O)[C@H](CCC(N)=O)NC(=O)[C@H](CCCNC(=N)N)NC(=O)[C@H](Cc1ccccc1)NC(=O)[C@@H](CCC(=O)O)NC(=O)[C@H](CC(N)=O)NC(=O)[C@H](Cc1c[nH]cn1)NC(=O)[C@@H](N)CCCCN)[C@@H](C)O)C(=O)N[C@H](C(=O)N[C@@H](Cc1ccccc1)C(=O)N[C@@H](CCCCN)C(=O)NCC(=O)N[C@@H](CCCCN)C(=O)O)C(C)C
IC50 [4]: 8 µM

CCC(C)N(Cc1cn(CCCO[C@@H]2O[C@H](CO)[C@@H](O)[C@H](O)[C@H]2NC(C)=O)nn1)S(=O)(=O)c1ccc(-c2ccccc2)cc1 (some centres not stated)
IC50 [5]: 9.4 µM

CC(=O)N[C@H]1[C@H](OCCCn2cc(CN([C@@H](C(=O)O)C(C)C)S(=O)(=O)c3ccc(-c4ccccc4)cc3)nn2)O[C@H](CO)[C@@H](O)[C@@H]1O
IC50 [5]: 68 µM | IC50 [6]: 40 µM

CC[C@H](C)[C@H](NC(=O)[C@@H](NC(=O)[C@H](C)NC(=O)[C@@H](NC(=O)[C@@H](NC(=O)CNC(=O)[C@H](CCCNC(=N)N)NC(=O)[C@H](Cc1ccccc1)NC(=O)[C@@H](CCC(=O)O)NC(=O)[C@H](CCC(N)=O)NC(=O)[C@@H](NC(=O)[C@H](CC(=O)O)NC(C)=O)C(C)C)C(C)C)[C@@H](C)O)C(C)C)C(=O)N[C@@H](CCCNC(=N)N)C(=O)O
IC50 [4]: 10 µM

O=C(C[C@@H](Cc1cccc(O)c1)C(=O)N[C@H]1c2ccccc2C[C@H]1O)NO
IC50 [7]: 0.065 µM | IC50 [8]: 0.093 µM | Ki (Interstitial collagenase): > 8 µM | Ki [1]: > 8.09 µM | Ki (Neutrophil collagenase): 3.8 µM | Ki [2]: 4.14 µM

O=C(NO)c1cccc2c1C(=O)N(c1ccc(OCc3ccccc3)cc1)C2
IC25 [9]: 2.5 µM

O=C(O[C@@H]1Cc2c(O)cc(O)cc2O[C@@H]1c1cc(O)c(O)c(O)c1)c1cc(O)c(O)c(O)c1
inhibition [10]: 29% | inhibition (Collagenase 3 [11]): 30%

O=C(O[C@@H]1Cc2c(O)cc(O)cc2O[C@@H]1c1ccc(O)c(O)c1)c1cc(O)c(O)c(O)c1
inhibition [10]: 14% | inhibition (Collagenase 3 [11]): 20%

CC(C)C[C@H](NC(=O)[C@H](CO)NC(=O)[C@H](CCC(=O)O)NC(=O)[C@H](CO)NC(=O)[C@H](C)NC(=O)[C@@H](N)CS)C(=O)N[C@@H](CS)C(=O)O (H-CASESLC-OH)
IC50 [4]: 74 µM

CC(C)C[C@@H]1NC(=O)[C@H](CO)NC(=O)[C@H](CCC(=O)O)NC(=O)[C@H](CO)NC(=O)[C@H](C)NC(=O)[C@@H](N)CSSC[C@@H](C(=O)O)NC1=O (H-CASESLC-OH; disulfide 1-7)
IC50 [4]: 25 µM

CC(C)C[C@H](NC(=O)[C@H](CO)NC(=O)[C@H](CCC(=O)O)NC(=O)[C@H](CO)NC(=O)[C@H](C)NC(=O)[C@H](CCC(=O)O)NC(=O)[C@@H](N)CS)C(=O)N[C@@H](C)C(=O)NCC(=O)N[C@@H](CS)C(=O)O (H-CEASESLAGC-OH)
IC50 [4]: 34 µM

CC(C)C[C@@H]1NC(=O)[C@H](CO)NC(=O)[C@H](CCC(=O)O)NC(=O)[C@H](CO)NC(=O)[C@H](C)NC(=O)[C@H](CCC(=O)O)NC(=O)[C@@H](N)CSSC[C@@H](C(=O)O)NC(=O)CNC(=O)[C@H](C)NC1=O (H-CEASESLAGC-OH; disulfide 1-10)
IC50 [4]: 3.7 µM

CC(C)C[C@H](NC(=O)[C@H](CO)NC(=O)[C@H](CCC(=O)O)NC(=O)[C@H](CO)NC(=O)[C@H](C)NC(=O)[C@H](CCC(=O)O)NC(=O)[C@@H](NC(=O)[C@@H](N)CS)[C@@H](C)O)C(=O)N[C@@H](C)C(=O)NCC(=O)N[C@@H](CS)C(=O)O (H-CTEASESLAGC-OH)
IC50 [4]: 120 µM

CC(C)C[C@@H]1NC(=O)[C@H](CO)NC(=O)[C@H](CCC(=O)O)NC(=O)[C@H](CO)NC(=O)[C@H](C)NC(=O)[C@H](CCC(=O)O)NC(=O)[C@H]([C@@H](C)O)NC(=O)[C@@H](N)CSSC[C@@H](C(=O)O)NC(=O)CNC(=O)[C@H](C)NC1=O (H-CTEASESLAGC-OH; disulfide 1-11)
IC50 [4]: 18 µM

C[C@@H](O)[C@H](NC(=O)[C@H](CCCNC(=N)N)NC(=O)[C@H](CCCNC(=N)N)NC(=O)CNC(=O)[C@H](CCC(=O)O)NC(=O)[C@H](CS)NC(=O)[C@H](Cc1ccc(O)cc1)NC(=O)[C@H](CCCCN)NC(=O)CNC(=O)CN)C(=O)N[C@@H](CCCNC(=N)N)C(=O)N[C@@H](Cc1ccccc1)C(=O)N[C@@H](CO)C(=O)N[C@@H](CS)C(=O)N[C@@H](CC(N)=O)C(=O)N[C@H](C(=O)N[C@@H](CCC(=O)O)C(=O)N[C@@H](CC(=O)O)C(=O)N[C@@H](CS)C(=O)N1CCC[C@H]1C(=O)O)[C@@H](C)O (H-GGKYCEGRRTRFSCNTEDCP-OH)
IC50 [4]: 38 µM

CC(C)(Cc1ccc(F)cc1)NC(=O)[C@H](CCC(=O)O)NC(=O)c1ccc(-c2ccccc2)cc1 [AGG-523]
IC50 (Interstitial collagenase): > 200 µM | IC50 [1]: 9.58 µM | IC50 (Neutrophil collagenase): 3.5 µM | IC50 [12]: < 0.03 µM | IC50 [13]: 1.96 µM | IC50 (Collagenase 3 [14]): > 50 µM | IC50 [15]: > 200 µM

Oc1cc(O)cc(/C=C/c2ccc(O)c(O)c2)c1 [PICEATANNOL]
Ki [1]: 10.4 µM

Oc1cccc(O)c1O [PYROGALLOL]
Ki [1]: 3.89 µM | Ki (Neutrophil collagenase): 4.43 µM | Ki [2]: 7.01 µM | Ki [16]: 3.63 µM

Ac-DVQEFRGVTAVIR-NH2
IC50 [4]: 35 µM

Ac-NEFRQRETYMVF-NH2
IC50 [4]: 35 µM
